pEC50: −log10 of the molar value.

The subject of this test is recombinant NL4-3 virus (Renilla luciferase in nef, Gag P373S). Briefly: HIV cell culture assay (luciferase reporter virus in MT-2 cells). As to conditions: NL43. The test is classed as cell-based. How it is done:
HIV cell culture assay—MT-2 cells and 293T cells were obtained from the NIH AIDS Research and Reference Reagent Program. MT-2 cells were propagated in RPMI 1640 media supplemented with 10% heat inactivated fetal bovine serum, […]. The 293T cells were propagated in DMEM media supplemented with 10% heat inactivated fetal bovine serum (FBS), 100 units/ml penicillin G and 100 μg/ml streptomycin. The proviral DNA clone of NL4-3 was obtained from the NIH AIDS Research and Reference Reagent Program. A recombinant NL4-3 virus, in which a section of the nef gene from NL4-3 was replaced with the Renilla luciferase gene, was used as a reference virus. In addition, residue Gag P373 was converted to P373S. Briefly, the recombinant virus was prepared by transfection of the altered proviral clone of NL4-3. Transfections were performed in 293T cells using LipofectAMINE PLUS from Invitrogen (Carlsbad, Calif.), according to manufacturer's instruction. The virus was titered in MT-2 cells using luciferase enzyme activity as a marker. Luciferase was quantitated using the Dual Luciferase kit from Promega (Madison, Wis.), with modifications to the manufacturer's protocol. The diluted Passive Lysis solution was pre-mixed with the re-suspended Luciferase Assay Reagent and the re-suspended Stop & Glo Substrate (2:1:1 ratio). Fifty (50) μL of the mixture was added to each aspirated well on assay plates and luciferase activity was measured immediately on a Wallac TriLux (Perkin-Elmer). Antiviral activities of inhibitors toward the recombinant virus were quantified by measuring luciferase activity in cells infected for 4-5 days with NLRluc recombinants in the presence serial dilutions of the inhibitor. Table 1 is the key for the data in Table 2.
(In general: A reporter such as luciferase makes a cellular process visible.)
`C=C(C)[C@@H]1CC[C@]2(CO)CC[C@]3(C)[C@H](CC[C@@H]4[C@@]5(C)CC=C(c6cc(C(=O)O)no6)C(C)(C)[C@@H]5CC[C@]43C)[C@@H]12` [Example 9, 5-((1R,3aS,5aR,5bR,7aR,11aS,11bR,13aR,13bR)-3a-(hydroxymethyl)-5a,5b,8,8,11a-pentamethyl-1-(prop-1-en-2-yl)-2,3,3a,4,5,5a,5b,6,7,7a,8,11,11a,11b,12,13,13a,13b-octadecahydro-1H-cyclopenta[a]chrysen-9-yl)isoxazole-3-carboxylic acid]: the pEC50 (commonly −log10 of the EC50, conventionally taken in molar units) is above 6.00.

In the case of `C=C(C)[C@@H]1CC[C@]2(C(=O)O)CC[C@]3(C)[C@H](CC[C@@H]4[C@@]5(C)CC=C(c6ccc(C(=O)O)c(F)c6)C(C)(C)[C@@H]5CC[C@]43C)[C@@H]12` [Example 4d, (1R,3aS,5aR,5bR,7aR,11aS,11bR,13aR,13bR)-9-(4-carboxy-3-fluorophenyl)-5a,5b,8,8,11a-pentamethyl-1-(prop-1-en-2-yl)-2,3,3a,4,5,5a,5b,6,7,7a,8,11,11a,11b,12,13,13a,13b-octadecahydro-1H-cyclopenta[a]chrysene-3a-carboxylic acid], the pEC50 is above 6.00.

As to `C=C(C)[C@@H]1CC[C@]2(C(=O)O)CC[C@]3(C)[C@H](CC[C@@H]4[C@@]5(C)CC=C(c6cccc(S(=O)(=O)NC)c6)C(C)(C)[C@@H]5CC[C@]43C)[C@@H]12` [Example 4e, (1R,3aS,5aR,5bR,7aR,11aS,11bR,13aR,13bR)-5a,5b,8,8,11a-pentamethyl-9-(3-(N-methylsulfamoyl)phenyl)-1-(prop-1-en-2-yl)-2,3,3a,4,5,5a,5b,6,7,7a,8,11,11a,11b,12,13,13a,13b-octadecahydro-1H-cyclopenta[a]chrysene-3a-carboxylic acid], the pEC50 was above 6.00.

With `C=C(C)[C@@H]1CC[C@]2(CO)CC[C@]3(C)[C@H](CC[C@@H]4[C@@]5(C)CC=C(c6ccc(O)c(Cl)c6)C(C)(C)[C@@H]5CC[C@]43C)[C@@H]12` [Example 5g, 2-chloro-4-((1R,3aS,5aR,5bR,7aR,11aS,11bR,13aR,13bR)-3a-(hydroxymethyl)-5a,5b,8,8,11a-pentamethyl-1-(prop-1-en-2-yl)-2,3,3a,4,5,5a,5b,6,7,7a,8,11,11a,11b,12,13,13a,13b-octadecahydro-1H-cyclopenta[a]chrysen-9-yl)phenol], the pEC50 was below 6.00.

As for `C=C(C)[C@@H]1CC[C@]2(CO)CC[C@]3(C)[C@H](CC[C@@H]4[C@@]5(C)CC=C(c6ccc(C(=O)O)c(O)c6)C(C)(C)[C@@H]5CC[C@]43C)[C@@H]12` [Example 5p, 2-hydroxy-4-((1R,3aS,5aR,5bR,7aR,11aS,11bR,13aR,13bR)-3a-(hydroxymethyl)-5a,5b,8,8,11a-pentamethyl-1-(prop-1-en-2-yl)-2,3,3a,4,5,5a,5b,6,7,7a,8,11,11a,11b,12,13,13a,13b-octadecahydro-1H-cyclopenta[a]chrysen-9-yl)benzoic acid], the pEC50 is above 6.00.

In the case of `C=C(C)[C@@H]1CC[C@]2(CO)CC[C@]3(C)[C@H](CC[C@@H]4[C@@]5(C)CC=C(c6ccc(C(=O)O)cn6)C(C)(C)[C@@H]5CC[C@]43C)[C@@H]12` [Example 5u, 6-((1R,3aS,5aR,5bR,7aR,11aS,11bR,13aR,13bR)-3a-(hydroxymethyl)-5a,5b,8,8,11a-pentamethyl-1-(prop-1-en-2-yl)-2,3,3a,4,5,5a,5b,6,7,7a,8,11,11a,11b,12,13,13a,13b-octadecahydro-1H-cyclopenta[a]chrysen-9-yl)nicotinic acid], the pEC50 is above 6.00.

Regarding `CC1(C)CC[C@]2(C(=O)O)CC[C@]3(C)C(=CC[C@@H]4[C@@]5(C)CC=C(c6ccc(C(=O)O)cc6)C(C)(C)[C@@H]5CC[C@]43C)[C@@H]2C1` [Example 13, (4aS,6aS,6bR,8aR,12aS,12bR,14bS)-10-(4-carboxyphenyl)-2,2,6a,6b,9,9,12a-heptamethyl-1,2,3,4,4a,5,6,6a,6b,7,8,8a,9,12,12a,12b,13,14b-octadecahydropicene-4-a-carboxylic acid], the pEC50 was above 6.00.

For `C=C(C)[C@@H]1CC[C@]2(CO)CC[C@]3(C)[C@H](CC[C@@H]4[C@@]5(C)CC=C(c6ccc(C(=O)O)c(Cl)c6)C(C)(C)[C@@H]5CC[C@]43C)[C@@H]12` [Example 5a, 2-chloro-4-((1R,3aS,5aR,5bR,7aR,11aS,11bR,13bR)-3a-(hydroxymethyl)-5a,5b,8,8,11a-pentamethyl-1-(prop-1-en-2-yl)-2,3,3a,4,5,5a,5b,6,7,7a,8,11,11a,11b,12,13,13a,13b-octadecahydro-1H-cyclopenta[a]chrysen-9-yl)benzoic acid], the pEC50 is above 6.00.

For `C=C(C)[C@@H]1CC[C@]2(C(=O)O)CC[C@]3(C)[C@H](CC[C@@H]4[C@@]5(C)CC=C(c6ccc(C(=O)O)s6)C(C)(C)[C@@H]5CC[C@]43C)[C@@H]12` [Example 4n, 5-((1R,3aS,5aR,5bR,7aR,11aS,11bR,13aR,13bR)-3a-carboxy-5a,5b,8,8,11a-pentamethyl-1-(prop-1-en-2-yl)-2,3,3a,4,5,5a,5b,6,7,7a,8,11,11a,11b,12,13,13a,13b-octadecahydro-1H-cyclopenta[a]chrysen-9-yl)thiophene-2-carboxylic acid], the pEC50 is above 6.00.

Regarding `C=C(C)[C@@H]1CC[C@]2(CO)CC[C@]3(C)[C@H](CC[C@@H]4[C@@]5(C)CC=C(c6ccc(O)c(F)c6)C(C)(C)[C@@H]5CC[C@]43C)[C@@H]12` [Example 5f, 2-fluoro-4-((1R,3aS,5aR,5bR,7aR,11aS,11bR,13aR,13bR)-3a-(hydroxymethyl)-5a,5b,8,8,11a-pentamethyl-1-(prop-1-en-2-yl)-2,3,3a,4,5,5a,5b,6,7,7a,8,11,11a,11b,12,13,13a,13b-octadecahydro-1H-cyclopenta[a]chrysen-9-yl)phenol], the pEC50 is above 6.00.

Turning to `C=C(C)[C@@H]1CC[C@]2(CO)CC[C@]3(C)[C@H](CC[C@@H]4[C@@]5(C)CC=C(c6ccc(-c7nn[nH]n7)cc6)C(C)(C)[C@@H]5CC[C@]43C)[C@@H]12` [Example 5l, ((1R,3aS,5aR,5bR,7aR,11aS,11bR,13aR,13bR)-9-(4-(2H-tetrazol-5-yl)phenyl)-5a,5b,8,8,11a-pentamethyl-1-(prop-1-en-2-yl)-2,3,3a,4,5,5a,5b,6,7,7a,8,11,11a,11b,12,13,13a,13b-octadecahydro-1H-cyclopenta[a]chrysen-3a-yl)methanol], the pEC50 was below 6.00.

Turning to `C=C(C)[C@@H]1CC[C@]2(C(=O)OC)CC[C@]3(C)[C@H](CC[C@@H]4[C@@]5(C)CC=C(c6ccc(C(=O)O)cc6)C(C)(C)[C@@H]5CC[C@]43C)[C@@H]12` [Example 1b, 4-((1R,3aS,5aR,5bR,7aR,11aS,13aR,13bR)-3a-(methoxycarbonyl)-5a,5b,8,8,11a-pentamethyl-1-(prop-1-en-2-yl)-2,3,3a,4,5,5a,5b,6,7,7a,8,11,11a,11b,12,13,13a,13b-octadecahydro-1H-cyclopenta[a]chrysen-9-yl)benzoic acid], the pEC50 is above 6.00.

(Values after patent US8754068B2, “Modified C-3 betulinic acid derivatives as HIV maturation inhibitors” (priority 2010, dated 2014).)
